According to patent US8129106B2, “Sequence-specific detection of methylation in biomolecules” (priority 2004, dated 2012):
Where two headings read alike, the source gives them in different places.

Tests used:
M.HhaI [1] = molecular target: T1, M.HhaI (Haemophilus parahaemolyticus, UniProt P05102); test: M.HhaI-catalysed coupling of biotinylated aziridine cofactors with duplex oligodeoxynucleotide I-II (anion exchange HPLC); type: biochemical, Haemophilus haemolyticus; conditions: for conversion of duplex I-II to coupling product (protein-DNA complex): cofactor 80 μM, duplex I-II 10 μM, M.HhaI 11 μM, 37° C., after 3 h (1), 1.5 h (2), 6.25 h (3)
Method: Solutions (400 μL) of aziridine cofactor 1, 2 or 3 (32 nmol, 80 μM), duplex oligodeoxynucleotide I-II (4 nmol, 10 μM) and M.HhaI (4.4 nmol, 11 μM) in buffer (10 mM Tris hydrochloride, pH 7.4, 50 mM sodium chloride, 0.05 mM ethylene-diaminetetraacetic acid and 2 mM β-mercaptoethanol) were incubated at 37° C. The progress of the coupling reactions was monitored by anion exchange HPLC (Poros 10 HQ, 10 μm, 4.6×10 mm, Applied Biosystems). Compounds were eluted with aqueous potassium chloride (0.2 M for 5 min, followed by linear gradients to 0.4 M in 5 min, to 0.6 M in 20 min and to 1 M in 5 min) in Tris hydrochloride buffer (10 mM, pH 7.6) at a flow of 4 mL/min. […] These new compounds are assigned to non-covalent protein-DNA complexes between M.HhaI and the coupling products I^1-II, I^2-II and I^3-II based on their UV absorption ratio at 260 nm and 280 nm.
The presence and functionality of biotin groups in I^1-II, I^2-II and I^3-II were verified by addition of streptavidin. Residual aziridine cofactors 1, 2 or 3 were first removed from the labelled duplexes I^1-II, I^2-II or I^3-II by gel filtration using NAP-5 columns (Amersham Biosciences, Freiburg, Germany) according to the instructions of the supplier. Afterwards, streptavidin (25 μg) was added to the solutions (25 μL, 0.25 nmol I^1-II, I^2-II or I^3-II) and incubation was performed at 37° C. for 30 min.

M.HhaI [2] = molecular target: T1, M.HhaI; test: Methylation-sensitive biotinylation of linearized pUC19 plasmid DNA with M.HhaI (R.HhaI protection, streptavidin mobility shift); type: biochemical, Haemophilus haemolyticus; conditions: cofactor 80 μM, 37° C. for 2 h, non- vs CpG-methylated LpUC19
Method: The reaction with aziridine cofactor 1 and M.HhaI was used to specifically detect DNA methylation of plasmid DNA (FIG. 2). Experiments were performed with R.XmnI-linearized plasmid pUC19 DNA (LpUC19). Cytosine residues within the 5′-CG-3′ DNA sequences (CpG-motives) of LpUC19 were methylated using the DNA (cytosine-5)-methyltransferase M.SssI and the natural cofactor AdoMet. Non- and CpG-methylated LpUC19 were treated with biotinylated aziridine cofactor 1 and M.HhaI, which can only alkylate the first cytosine residue within the 5′-GCGC-3′ DNA sequence if this residue is not blocked by methylation of the inner CpG-motive. The different plasmids where then analyzed by treatment with the restriction endo-nuclease R.HhaI (5′-GCGC-3′ recognition sequence) or streptavidin (tight binding to the biotin group) leading to fragmentation, no reaction or an electrophoretic mobility shift (FIG. 2A). […]
Samples (10 μL) of unmodified (A.), methylated (B. or C.) or biotinylated (C.) LpUC19 plasmid DNA (200 ng) in buffer (10 mM Tris hydrochloride, pH 7.9, 10 mM magnesium chloride, 50 mM sodium chloride, 1 mM 1,4-dithiothreitol and 1 mg/mL bovine serum albumin) were incubated with R.HhaI (2 U) at 37° C. for 1 h. DNA fragmentation was analyzed by agarose gel electrophoresis (1% agarose gel). […]

M.SssI = molecular target: T2, M.SssI (Spiroplasma monobiae, UniProt P15840); test: M.SssI-catalysed coupling of aziridine cofactors with duplex oligodeoxynucleotides (anion exchange HPLC); type: biochemical
T2 construct: made in house; host or cells: Escherichia coli
Method: M.SssI-mediated conversion of 6BAz was studied by using a duplex-oligodeoxynucleotide and purified DNA-methyl-transferase. After adjusting and optimizing the reaction conditions (pH and composition of the puffers, temperature, amount of M.SssI) 60% of a hemi-methylated duplex-oligodeoxynucleotide was labelled in a 2 h reaction. When unmethylated duplex-oligodeoxynucleotides were used, approximately 100% was labelled. These diverging results may be due to the presence of minor amounts of natural cofactor AdoMet in the enzyme preparation.
Solutions of hemi-methylated duplex oligodeoxynucleotide I-II (1 μM, I=5′-[…]-3′ (SEQ ID NO:1), II=5′-[…]-3′ with M=5-methyl-2′-deoxycytidine (SEQ ID NO:2)) or non-methylated duplex oligodeoxynucleotide I-III (1 μM, I=5′-[…]-3′ (SEQ ID NO:1), III=5′-[…]-3′ (SEQ ID NO:3)), aziridine cofactor 3 (100 μM) and M.SssI (2 μM) in buffer (10 mM Tris hydrochloride, pH 7.4, 50 mM sodium chloride, 10 mM ethylenediaminetetraacetic acid and 2 mM dithiothreitol) were incubated at 21° C. The progress of the coupling reactions was monitored by anion exchange HPLC (Poros 10 HQ, 10 μm, 4.6×100 mm, Applied Biosystems). Compounds were eluted with aqueous potassium chloride (0.2 M for 5 min, followed by linear gradients to 0.5 M in 5 min and to 1 M in 30 min) in Tris hydrochloride buffer (10 mM, pH 7.6) supplemented with sodium azide (1 mM) at a flow of 4 mL/min.

T1 sequence (P05102 whole entry): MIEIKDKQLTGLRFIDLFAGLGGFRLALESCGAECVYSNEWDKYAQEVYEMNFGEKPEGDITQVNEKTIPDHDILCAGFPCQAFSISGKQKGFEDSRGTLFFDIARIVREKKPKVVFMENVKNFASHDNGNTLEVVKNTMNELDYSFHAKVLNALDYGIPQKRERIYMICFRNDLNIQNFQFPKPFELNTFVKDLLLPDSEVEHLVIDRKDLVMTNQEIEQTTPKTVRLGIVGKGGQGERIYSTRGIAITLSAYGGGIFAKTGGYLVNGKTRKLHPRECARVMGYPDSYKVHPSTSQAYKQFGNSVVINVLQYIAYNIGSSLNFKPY
T2 sequence (P15840 whole entry): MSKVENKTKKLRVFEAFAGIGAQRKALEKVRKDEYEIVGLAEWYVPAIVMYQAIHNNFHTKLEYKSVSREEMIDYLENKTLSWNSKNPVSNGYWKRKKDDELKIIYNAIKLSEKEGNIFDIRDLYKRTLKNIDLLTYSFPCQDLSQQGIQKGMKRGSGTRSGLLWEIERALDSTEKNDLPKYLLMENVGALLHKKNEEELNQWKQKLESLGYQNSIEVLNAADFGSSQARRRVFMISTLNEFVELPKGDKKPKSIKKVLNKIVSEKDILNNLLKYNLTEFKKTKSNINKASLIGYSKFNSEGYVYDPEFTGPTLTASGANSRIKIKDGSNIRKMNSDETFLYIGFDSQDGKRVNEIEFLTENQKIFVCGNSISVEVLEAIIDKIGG

Row | Substance | substrate for M.HhaI (M.HhaI [1]) | conversion of duplex I-II to coupling product (protein-DNA complex) (M.HhaI [1]) | labelling reaction of LpUC19 plasmid DNA with M.HhaI (M.HhaI [2]) | cofactor use by M.SssI (transfer onto DNA) (M.SssI) | hemi-methylated duplex-oligodeoxynucleotide labelled (M.SssI; M.SssI, 2 h reaction, optimized conditions) [%] | unmethylated duplex-oligodeoxynucleotide labelled (M.SssI; M.SssI, optimized conditions) | conversion of non-methylated duplex I-III to protein-DNA complexes with coupling product (M.SssI; duplex I-III 1 μM, cofactor 100 μM, M.SssI 2 μM, 21° C., 3 h incubation) | conversion of starting duplex I-II to product duplex I^3-II (M.SssI; hemi-methylated duplex I-II 1 μM, cofactor 100 μM, M.SssI 2 μM, 21° C., 3 h) | cofactor use by M.SssI (transfer onto DNA) (M.SssI; listed as 6BAz)
1 | 4-Amino-7-(5′-N-aziridinyl-5′-deoxy-β-D-ribofuranosyl)-5-[1″-(N″-biotinyl)-3″-aminoprop-1-ynyl]-7H-pyrrolo[2,3-d]pyrimidine [aziridine cofactor 2] | good substrates | almost complete conversion |  |  |  |  |  |  | 
2 | 4-Amino-7-(5′-N-aziridinyl-5′-deoxy-β-D-ribofuranosyl)-5-[1″-(N″-biotinyl)-3″-aminopropyl]-7H-pyrrolo[2,3-d]pyrimidine [aziridine cofactor 1] | good substrates | almost complete conversion | sequence-specific and blocked by CpG-methylation |  |  |  |  |  | 
3 | 5′-N-Aziridinyl-N6-[1″-(N″-biotinyl)-4″-aminobutyl]-5′-deoxyadenosine [aziridine cofactor 3] | good substrates | almost complete conversion |  | substrate for M.SssI | 60 | approximately 100% | almost complete conversion | about 60% | aziridin-cofactor for the DNA-MTase M.SssI
